Measured values published in US20260207640A1, “Polyphenolic Boronates and Use Thereof” (The Medical College of Wisconsin, Inc., priority 2022, published 2026).
“Also recorded” adds a separate entry of the source. Values belong to the compound of their own block, whether it stands above or below them.

Columns and labels:
[1] = test system: arginase-1 and NOS-2 (or iNOS); settings: cited from earlier work
[2] = test system: glioblastoma (U87MG) cells; test: IncuCyte cell proliferation, glioblastoma cells; type: cell-based, human; settings: for antiproliferative effect, boronate versus non-boronated analog: comparison within pair (HNK/HNK-B, Mito-HNK/Mito-HNK-B, MGN/MGN-B, Mito-MGN/Mito-MGN-B)
Protocol: (§1) FIGS. 2A-2C show effects of HNK and HNK-B on the proliferation of glioblastoma (U87MG), pancreatic cancer (MiaPaCa-2) cells, and lung cancer (A549) cells. The effects of HNK and HNK-B on the proliferation of U87MG (FIG. 2A), MiaPaCa-2 (FIG. 2B), or A549 (FIG. 2C) cells were monitored in the IncuCyte Live-Cell Analysis system. The IncuCyte analyzer provides real-time updates on cell confluence based on segmentation of high definition-phase contrast images. Representative cell images are shown as segmentation masks, illustrated when control cells reached 90% confluence (vertical solid line). The half maximal inhibitory concentration (IC50) values for U87MG (FIG. 2A), MiaPaCa-2 (FIG. 2B), or A549 (FIG. 2C) cells were determined at the point at which control cells reached ~90% confluence (vertical solid line). Relative cell confluence (control is taken as 100%) is plotted against concentration. Dashed lines represent the fitting curves used to determine the IC50 values as indicated. Data shown are the mean±standard deviation (SD).
(§2) The effects of Mito-HNK and Mito-HNK-B on the proliferation of U87MG (FIG. 3A), MiaPaCa-2 (FIG. 3B), or A549 (FIG. 3C) cells were monitored in the IncuCyte Live-Cell Analysis system. The IncuCyte analyzer provides real-time updates on cell confluence based on segmentation of high definition-phase contrast images. Representative cell images are shown as segmentation masks, illustrated when control cells reached 90% confluence (vertical solid line). The IC50 values for U87MG (FIG. 3A), MiaPaCa-2 (FIG. 3B), or A549 (FIG. 3C) cells were determined at the point at which control cells reached ~90% confluence (vertical solid line). Relative cell confluence (control is taken as 100%) is plotted against concentration. Dashed lines represent the fitting curves used to determine the IC50 values as indicated. Data shown are the mean±SD.
FIGS. 4A-4B show effects of Mito-MGN, Mito-MGN-B, MGN, and MGN-B on the proliferation of glioblastoma cancer (U87MG) cells. The effects of Mito-MGN, Mito-MGN-B, MGN, and MGN-B on the proliferation of U87MG cells were monitored in the IncuCyte Live-Cell Analysis system. The IncuCyte analyzer provides real-time updates on cell confluence based on segmentation of high definition-phase contrast images. Representative cell images are shown as segmentation masks, illustrated in black when control cells reached 90% confluence. Full growth curves of Mito-MGN and Mito-MGN-B are shown in panel (FIG. 4A). The IC50 values were determined at the point at which control cells reached ~90% confluence. Relative cell confluence (control is taken as 100%) is plotted against concentration. Dashed lines in FIG. 4B represent the fitting curves used to determine the IC50 values as indicated for Mito-MGN and Mito-MGN-B (left panel) and for MGN and MGN-B (right panel). Data shown are the mean±SD.
(§3) The U87MG (ATCC Cat #HTB-14, human glioblastoma cancer cells), A549 (ATCC Cat #CCL-185, human lung cancer cells), and MiaPaCa-2 (ATCC Cat #CRL-1420, human pancreatic cancer cells) cell lines were purchased from the American Tissue Culture Collection (Manassas, VA, USA). The UACC-62 melanoma cell line was purchased from AddexBio (San Diego, CA; Cat #C0020003). All cell lines were regularly authenticated. All cell lines were grown at 37° C. in 5% carbon dioxide. The U87MG, A549, and UACC-62 cells were maintained in Roswell Park Memorial Institute Medium 1640 medium (Thermo Fisher Scientific, Waltham, MA, USA; Cat #11875) supplemented with 10% fetal bovine serum. MiaPaCa-2 cells were maintained in Dulbecco's Modified Eagle Medium (Thermo Fisher Scientific, Waltham, MA, USA; Cat #11965) and supplemented with 10% fetal bovine serum. All cells were stored in liquid nitrogen and used within 20 passages after thawing.
The IncuCyte Live-Cell Analysis System was used to continuously monitor cell proliferation, as described in earlier publications.

[3] = test system: pancreatic cancer (MiaPaCa-2) cells; test: IncuCyte cell proliferation, pancreatic cancer cells; type: cell-based, human; settings: comparison within pair
Protocol: as §1
as §2, with “mean±SD. […]” for “mean±SD.”

lung cancer (A549) cells = test: IncuCyte cell proliferation, lung cancer cells; type: cell-based, human; settings: comparison within pair
Protocol: as §1
as §2, with “mean±SD. […]” for “mean±SD.”

melanoma (UACC-62) cells = test: IncuCyte cell proliferation, melanoma cells; type: cell-based; settings: dose-dependent
Protocol: FIGS. 5A-5B show effects of MGN and MGN-B on the proliferation of melanoma cancer (UACC-62) cells. The effects of MGN and MGN-B on the proliferation of UACC-62 cells were monitored in the IncuCyte Live-Cell Analysis system. The IncuCyte analyzer provides real-time updates on cell confluence based on segmentation of high definition-phase contrast images. The IC50 values were determined at the point at which control cells reached ~90% confluence. Relative cell confluence (control is taken as 100%) is plotted against concentration. Dashed lines in FIG. 5B represent the fitting curves used to determine the IC50 values as indicated for MGN and MGN-B. Data shown are the mean±SD.
as §3, with “MiaPaCa-2 cells were maintained in Dulbecco's Modified Eagle Medium (Thermo Fisher Scientific, Waltham, MA, USA; Cat #11965) and supplemented with 10% fetal bovine serum. All cells were stored in liquid nitrogen and used within 20 passages after thawing.” left out

[4] = test system: granulocytic-myeloid-derived suppressor cells (G-MDSCs) and regulatory T cells (Tregs); settings: cited from earlier work
[5] = Oxidation of boronates by ONOO−, HPLC; type: physicochemical; settings: in the presence of ONOO−
Protocol: (§4) All samples were incubated at room temperature in aqueous solution containing phosphate buffer (0.1 M, pH 7.4) and DTPA (10 μM). Absorption traces recorded using UV absorption detection at 260 nm.
(§5) High-performance liquid chromatography (HPLC) analysis was performed using an Agilent 1200 apparatus equipped with ultraviolet-visible spectroscopy absorption and a mass spectrometry detector (single quadrupole).
(§6) In the studies on the reaction profile of ONOO oxidation of Mito-HNK-B and derivatives, 2 μL of sample was injected into the HPLC system equipped with a C18 column (Phenomenex, Kinetex Evo, 100×2.1 mm, 1.7 μm) equilibrated with 5% MeCN containing 0.1% (v/v) formic acid. The compounds were separated by a linear increase in MeCN phase concentration from 5% to 100% over 8 min and until 15 min at 100% MeCN using a flow rate of 0.21 mL/min. The peak areas detected by monitoring the absorption at 260 nm were used for the quantitation.
(§7) The stock solutions of oxidants (HOCl and H2O2) were prepared freshly before each experiment; their concentrations were determined by spectrophotometry by reacting nitrite with H2O2, using the procedure described previously. […] Immediately prior to each experiment, the concentration of ONOO was determined spectrally at 302 nm (ε=1.7× 103 M^−1 cm^−1) after dilution in 0.1 M sodium hydroxide to ~10 mM concentration. […]

[6] = Hydrolysis of pinacolate ester in aqueous phosphate buffer, HPLC; type: physicochemical; settings: upon dilution in aqueous phosphate buffer
Protocol: Stock solutions of HNK-B, HNK-B^2, and Mito-HNK-B were prepared in dimethyl sulfoxide at a 10 mM concentration and this solution was added directly to the buffer to obtain the desired concentration. […] Thus, the boronic acid species were tested with the oxidants. When studying HNK-B and Mito-HNK-B oxidations by HOCl, stock solutions (10 mM) in MeCN were added to the phosphate buffer (100 mM, pH 7.4) to obtain a final concentration of the probe of 500 μM. Dimethyl sulfoxide solvent was avoided due to known rapid quenching of HOCl by dimethyl sulfoxide.

[7] = Oxidation of boronates by H2O2, HPLC; type: physicochemical
Protocol: as §4, §5, §6, §7

kidney = settings: in vivo; cited from earlier work
NOX2 = molecular target: T1, NOX2 (Homo sapiens, UniProt P04839); test: Oxidant formation from NOX2; settings: preliminary results
T1 sequence (P04839 2-570 limits assumed): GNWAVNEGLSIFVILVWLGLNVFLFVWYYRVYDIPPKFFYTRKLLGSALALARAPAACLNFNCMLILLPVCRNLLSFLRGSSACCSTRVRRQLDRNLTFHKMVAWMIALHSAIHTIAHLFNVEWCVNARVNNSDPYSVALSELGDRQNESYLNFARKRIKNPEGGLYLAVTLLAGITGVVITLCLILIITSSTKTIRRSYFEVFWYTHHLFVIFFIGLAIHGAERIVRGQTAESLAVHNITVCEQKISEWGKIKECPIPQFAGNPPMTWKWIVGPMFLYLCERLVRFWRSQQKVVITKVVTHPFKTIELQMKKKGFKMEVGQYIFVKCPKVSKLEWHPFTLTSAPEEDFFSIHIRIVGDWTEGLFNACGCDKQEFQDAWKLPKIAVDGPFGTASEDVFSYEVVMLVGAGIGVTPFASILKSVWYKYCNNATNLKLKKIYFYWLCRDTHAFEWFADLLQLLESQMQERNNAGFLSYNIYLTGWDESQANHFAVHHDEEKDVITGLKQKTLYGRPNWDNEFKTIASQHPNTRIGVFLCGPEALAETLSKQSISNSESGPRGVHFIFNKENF

lung tumors = settings: mice xenografts; cited from earlier work
[8] = not told; cited from earlier work

Compound: NC(=O)c1c(COC(=O)c2ccccc2O)no[n+]1[O-] [AT38, 3-(aminocarbonyl) furoxan-4-yl) methyl salicylate]
chemokine nitration [1]: mitigated chemokine nitration
expression of arginase-1 and NOS-2 (or iNOS) in myeloid cells in the TME [1]: inhibited the expression

Compound: C=CCc1ccc(O)c(-c2ccc(O)c(CC=C)c2)c1 [HNK, honokiol]
antiproliferative effect, boronate versus non-boronated analog [2]: nearly the same
antiproliferative effect, boronate versus non-boronated analog [3]: nearly the same
antiproliferative effect, boronate versus non-boronated analog (lung cancer (A549) cells): nearly the same

Compound: C=CCc1ccc(O)c(-c2cc(CC=C)ccc2O)c1 [MGN, magnolol]
effect on proliferation (melanoma (UACC-62) cells): decreasing the proliferation

Compound: C=CCc1ccc(O)c(-c2cc(CC=C)ccc2OCc2ccc(B3OC(C)(C)C(C)(C)O3)cc2)c1 [MGN-B, Magnolol boronate]
antiproliferative effect, boronate versus non-boronated analog [2]: increased the potency
effect on proliferation (melanoma (UACC-62) cells): decreasing the proliferation

Compound: O=C1C(OCCCCCCCCCC[P+](c2ccccc2)(c2ccccc2)c2ccccc2)=C(C2CCC(c3ccc(Cl)cc3)CC2)C(=O)c2ccccc21 (stereo not drawn) [Mito-ATO, Mitochondria-targeted atovaquone]
G-MDSCs and Tregs in the TME ([4]; flow cytometry analysis): significant decreases
T cell immune responses locally and in distant tumor sites ([4]; intratumoral injection into primary tumors, spontaneous tumor model): triggered potent T cell immune responses

oxidation to HNK / Mito-HNK [5]: rapidly oxidized
hydrolysis of pinacolate ester to the corresponding boronic acid [6]: fast hydrolysis
conversion of boronate to parent polyphenol ([7]; at higher concentrations of H2O2): increased
conversion of boronate to parent polyphenol (HNK or Mito-HNK) ([7]; in the presence of H2O2 (500 μM), boronate 500 μM, phosphate buffer 0.1 M pH 7.4, room temperature): 37%
Compound: Mitochondria-targeted honokiol boronate [Mito-HNK-B]
antiproliferative effect, boronate versus non-boronated analog [2]: slightly more potent; also recorded: nearly the same
antiproliferative effect, boronate versus non-boronated analog [3]: nearly the same
antiproliferative effect, boronate versus non-boronated analog (lung cancer (A549) cells): nearly the same

Compound: Mitochondria-targeted magnolol boronate [Mito-MGN-B]
antiproliferative potency of TPP+ conjugate compared with parent compounds MGN/MGN-B [2]: increased their antiproliferative potencies
antiproliferative effect, boronate versus non-boronated analog [2]: slightly more potent

Compound: mitochondria-targeted carboxy-proxyl [Mito-CP]
cisplatin-induced renal toxicity (kidney): inhibited cisplatin-induced renal toxicity

oxidant formation from NOX2 (NOX2): inhibits oxidant formation
Compound: mitochondria-targeted honokiol [Mito-HNK]
metastasis of lung tumors to the brain (lung tumors): inhibited metastasis
antiproliferative effect, boronate versus non-boronated analog [2]: nearly the same
antiproliferative effect, boronate versus non-boronated analog [3]: nearly the same
antiproliferative effect, boronate versus non-boronated analog (lung cancer (A549) cells): nearly the same
blood-brain-barrier permeability [8]: showed blood-brain-barrier permeability

Compound: mitochondria-targeted magnolol [Mito-MGN]
antiproliferative potency of TPP+ conjugate compared with parent compounds MGN/MGN-B [2]: increased their antiproliferative potencies
